In the test the test system is mice, carrageenan air pouch. In words: Carrageenan air-pouch test (exudate cell number). In kind it is in vivo, mouse. Conditions: peptides 100 μg i.p. one hour before carrageenan, 24 h; FIGS. 18A-18B. The method, then:
In this and the air-pouch test, 1.5 mg peptide was dissolved in 300 μl of DMSO, then in 0.9% NaCl to achieve the desired dose (250 μg/0.2 ml or 100 μg/0.2 ml). Carrageenan (Sigma) was dissolved in 0.9% aqueous NaCl (overnight). 50 μl of 2% carrageenan solution was injected intradermally into hind foot pads. The peptides were given in a single 250 μg dose (0.2 ml) per mouse intraperitoneally (i.p.), 30 min before carrageenan administration. Dexamethasone (DEX) (Dexaven, Polfa, Poland), a reference drug, was given i.p. in dose 25 μg per mouse. Control mice were administered i.p. appropriately diluted solvent (DMSO in aqueous NaCl) instead of peptides. The foot pads of “background” (BG) mice were injected with 50 μl of 0.9% aqueous NaCl. Foot pad edema was measured with a spring caliper, 2 h, 3 h and 4 h after administration of carrageenan. The results are presented in FIGS. 17A, 17B and 17C as mean values of the antigen-specific increase of the foot pad thickness measured in 5 mice in each experimental group and expressed in mm ±SE (only results from measurements 4 h following administration of carrageenan are presented in figures). Statistics: FIG. 17A: Control vs: DEX P=0.0001; 4B8M P=0.0001; P25 NS (P=1.0000); P28 NS (P=1.0000); P31 NS (P=0.0528); P35 P=0.0008 (ANOVA of Kruskal-Wallis); FIG. 17B: Statistics: Control vs: P22 NS (P=1.0000); P26 NS (P=1.0000); P27 P=0.0050; P30 P=0.0004; P33-b NS (P=1.0000); SP00-b P=0.0001; P00S-b NS (P=1.0000) (ANOVA of Kruskal-Wallis); FIG. 17C: Statistics: Control vs: P21 P=0.0147; P23-2 P=0.0083; P24 P=0.0001; P29 NS (P=0.9999); P32 P=0.0001; P33 NS (P=0.6806); P34 NS (P=0.1920) (ANOVA).
Air pouches were formed by subdermal injection into the dorsal region (in a halothane anesthesia) of 5 cm^3 of air (needle 23G x 11/4, 5 ml syringe). On day 3 the air pouches were given an additional 2 ml of air and an inflammatory process was elicited by an intra-pouch injection of 1% of carrageenan in 0.5 ml of 0.9% aqueous NaCl. The peptides were given i.p. at a dose of 100 μg one hour before carrageenan injection into the air pouch. The mice from the “background” (BG) group were given 0.9% aqueous NaCl i.p. and 0.9% aqueous NaCl into the air pouches. Control mice were given appropriately diluted DMSO i.p. and carrageenan into the air pouches. 24 h after carrageenan injection, the mice were sacrificed by cervical dislocation, the air pouches were supplemented with 1 ml of 0.9% aqueous NaCl and the exudates from the air pouches were aspirated using a syringe. The exudates were diluted with 0.9% aqueous NaCl and the cells were counted in a Bürker hemocytometer. Data are presented in FIGS. 18A and 18B as the mean values from 10 mice/group (cell number×10^6 per mouse) ±SE. Then the cells were centrifuged and 0.1 ml of the supernatant was saved for TNF-α determination (see Determination of TNF-α activity, above). The cell pellets were used to perform smears on microscopic glasses, which were stained with Giemsa and May-Grünwald reagents for evaluation of mast cell degranulation. Cell analysis was performed by a histologist using a light microscope and 1000× magnification. The content of intact and degranulated mast cells is given in percentage (mean values from 10 mice/group) ±SE. Statistics: FIG. 18A: BG vs Control P=0.0000; Control vs: DEX P=0.0034; 4B8M P=0.0005; P22 NS (P=0.7275); P26 P=0.0032; P27 NS (P=0.0659); P35 NS (P=1.0000) (ANOVA of Kruskal-Wallis); FIG. 18B: Control vs: P21 NS (P=0.322); P23-2 P=0.0020; P24 P=0.0001; P25 P=0.0418; P28 NS (P=0.3502); P29 NS (P=0.0582); P30 P=0.0006; P31 P=0.0078; P32 P=0.0340; P33 NS (P=0.9993); P34 NS (p=0.0566) (ANOVA).

Non-standard residues stand in square brackets, D forms with d. Residues, ends and D or L forms follow the SMILES beside them. β3hF = N[C@H](CC(=O)O)Cc1ccccc1

For the compound `O=C1C[C@H](Cc2ccccc2)NC(=O)[C@@H]2CCCN2C(=O)[C@@H]2CCCN2C(=O)[C@H](Cc2ccccc2)N1` [I-A] (cyclo(FPP[β3hF])), the “air pouch exudate cell number, P vs Control” value turned out to be 0.0005.
